Experimental data: ChEMBL document CHEMBL6134822, “Discovery of a potent and in vivo anti-inflammatory Efficacious, P2Y14R antagonist with a novel benzisoxazoles scaffold by DNA-encoded chemical library technology” (Eur J Med Chem, 2025)
The source made the active and inactive calls. No cut-off for these calls is given here.

How the values were obtained:
[1] = molecular target: T1, P2Y purinoceptor 14 (Homo sapiens, UniProt Q15391); experiment: Binding affinity to CM5 chip-immobilized P2Y14 receptor (unknown origin) assessed as equilibrium dissociation constant by SPR analysis
T1 sequence (Q15391 whole entry): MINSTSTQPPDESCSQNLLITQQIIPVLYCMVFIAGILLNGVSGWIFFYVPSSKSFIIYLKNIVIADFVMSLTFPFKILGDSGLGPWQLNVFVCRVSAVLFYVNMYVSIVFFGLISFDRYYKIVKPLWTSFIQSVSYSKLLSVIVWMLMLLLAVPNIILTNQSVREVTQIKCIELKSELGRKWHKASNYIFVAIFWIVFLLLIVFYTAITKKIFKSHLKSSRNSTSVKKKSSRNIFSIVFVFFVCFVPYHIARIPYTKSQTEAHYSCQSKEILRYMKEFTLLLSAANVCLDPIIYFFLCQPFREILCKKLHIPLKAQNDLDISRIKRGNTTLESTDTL

[2] = molecular target: T1, P2Y purinoceptor 14; experiment: Antagonist activity at P2Y14 receptor (unknown origin) stably expressed in HEK293 cells assessed as inhibition of forskolin-induced intracellular cAMP production incubated for 30 mins in presence of UDPG by Camp-Glo kit assay; assay type: functional, cell-based
[3] = Stability in simulated intestinal fluid assessed as half life; assay type: physicochemical
[4] = Stability in simulated gastric fluid assessed as half life; assay type: physicochemical
[5] = Microsomal stability in human liver microsomes assessed as intrinsic clearance; assay type: ADME, Microsome; conditions: read-out: CLH
[6] = Microsomal stability in human liver microsomes assessed as half life; assay type: ADME, Microsome
[7] = test system: Mus musculus; experiment: Anti-inflammatory activity in C57BL/6 mouse model of LPS-induced ALI assessed as reduction in lung tissue damage at 2 to 6 mg/kg qd treated for 7 days by H and E staining based analysis; assay type: functional, organism-based; conditions: dose 2-6 mg/kg, time 7.0 day
[8] = test system: Mus musculus; experiment: Anti-inflammatory activity in C57BL/6 mouse model of LPS-induced ALI assessed as reduction in IL-1beta level in BALF at 2 to 6 mg/kg qd treated for 7 days by ELISA; assay type: functional, organism-based; conditions: dose 2-6 mg/kg, time 7.0 day
[9] = test system: Mus musculus; experiment: Anti-inflammatory activity in C57BL/6 mouse model of LPS-induced ALI assessed as reduction in IL-6 level in BALF at 2 to 6 mg/kg qd treated for 7 days by ELISA; assay type: functional, organism-based; conditions: dose 2-6 mg/kg, time 7.0 day
[10] = test system: Mus musculus; experiment: Anti-inflammatory activity in C57BL/6 mouse model of LPS-induced ALI assessed as reduction in TNF-alpha level in BALF at 2 to 6 mg/kg qd treated for 7 days by ELISA; assay type: functional, organism-based; conditions: dose 2-6 mg/kg, time 7.0 day
[11] = test system: Mus musculus; experiment: Anti-inflammatory activity in C57BL/6 mouse model of LPS-induced ALI assessed as reduction in MPO level in lung tissue at 2 to 6 mg/kg qd treated for 7 days; assay type: functional, organism-based; conditions: dose 2-6 mg/kg, time 7.0 day
[12] = Toxicity in C57BL/6 mouse model of LPS-induced ALI assessed as average body weight change at 2 to 6 mg/kg qd treated for 7 days; assay type: organism-based; conditions: in vivo, 168 h, dose 2-6 mg/kg, time 7 day

Kd [1]: 7.26 µM
IC50 [2]: 0.0236 µM
half-life [3]: > 5 h
half-life [4]: > 50 h
microsomal CLint [5]: 25.6 µL/min/mg
half-life [6]: 5.9 h
SMILES: CNC(=O)C1CN(C(=O)c2onc3ccccc23)CC12CCN(C(=O)c1noc3ccccc13)CC2 (configuration not stated)
Activity [7]: Active
Activity [8]: Active
Activity [9]: Active
Activity [10]: Active
Activity [11]: Active
Activity [12]: Non-toxic
